Test system: MV-4-11 cells
Assay: Gene expression microarray analysis (Affymetrix PrimeView) and GSEA
Assay type: cell-based, human
Parameters: RFU PODN (11730768_x_at) / Fold change /veh PODN (11730768_x_at) / RFU LINC00158 (11744669_a_at) / Fold change /veh LINC00158 (11744669_a_at) / RFU DUSP10 (11751237_a_at) / Fold change /veh DUSP10 (11751237_a_at) / RFU ID3 (11757404_x_at) / Fold change /veh ID3 (11757404_x_at) / RFU PLEKHG5 (11737974_s_at) / Fold change /veh PLEKHG5 (11737974_s_at) / RFU LRRC4B (11730491_at) / Fold change /veh LRRC4B (11730491_at) / RFU GIMAP4 (11747438_a_at) / Fold change /veh GIMAP4 (11747438_a_at) / RFU KRT8 (11758183_x_at) / Fold change /veh KRT8 (11758183_x_at) / RFU CNN1 (11734310_a_at) / Fold change /veh CNN1 (11734310_a_at) / RFU VPS37D (11726825_at) / Fold change /veh VPS37D (11726825_at) / RFU C10orf10 (11716522_x_at) / Fold change /veh C10orf10 (11716522_x_at) / RFU KIR2DL2 /// KIR2DL4 /// KIR2DL5A /// KIR2DL5B /// KIR2DS1 /// KIR2DS2 /// KIR2DS3 /// KIR2DS4 /// KIR3DL3 /// KIR3DL3 /// KIR3DS1 (11738374_at) / Fold change /veh KIR2DL2 /// KIR2DL4 /// KIR2DL5A /// KIR2DL5B /// KIR2DS1 /// KIR2DS2 /// KIR2DS3 /// KIR2DS4 /// KIR3DL3 /// KIR3DL3 /// KIR3DS1 (11738374_at) / RFU C1QL1 (11718748_at) / Fold change /veh C1QL1 (11718748_at) / RFU TMPRSS4 (11747572_a_at) / Fold change /veh TMPRSS4 (11747572_a_at) / RFU HAMP (11756126_x_at) / Fold change /veh HAMP (11756126_x_at) / RFU RNFT2 (11725882_a_at) / Fold change /veh RNFT2 (11725882_a_at) / RFU NR4A2 (11747474_a_at) / Fold change /veh NR4A2 (11747474_a_at) / RFU ABCC12 (11746883_a_at) / Fold change /veh ABCC12 (11746883_a_at) / RFU TMEM136 (11760407_x_at) / Fold change /veh TMEM136 (11760407_x_at) / RFU CLDN22 /// WWC2 (11732394_at) / Fold change /veh CLDN22 /// WWC2 (11732394_at) / RFU HLA-DPB1 (11760878_x_at) / Fold change /veh HLA-DPB1 (11760878_x_at) / RFU SPINT1 (11716480_a_at) / Fold change /veh SPINT1 (11716480_a_at) / RFU GAP43 (11754022_s_at) / Fold change /veh GAP43 (11754022_s_at) / RFU A4GNT (11735810_at) / Fold change /veh A4GNT (11735810_at) / RFU PRB3 (11715151_x_at) / Fold change /veh PRB3 (11715151_x_at) / RFU TUBB4B (11761932_at) / Fold change /veh TUBB4B (11761932_at) / RFU CAPN14 (11732068_a_at) / Fold change /veh CAPN14 (11732068_a_at) / RFU TMCC2 (11721928_a_at) / Fold change /veh TMCC2 (11721928_a_at) / RFU IRGQ (11745062_a_at) / Fold change /veh IRGQ (11745062_a_at) / RFU FAM174B (11720279_a_at) / Fold change /veh FAM174B (11720279_a_at) / RFU TMPRSS4 (11748680_a_at) / Fold change /veh TMPRSS4 (11748680_a_at) / RFU FAM212B (11763350_a_at) / Fold change /veh FAM212B (11763350_a_at) / RFU PLEKHG5 (11743358_a_at) / Fold change /veh PLEKHG5 (11743358_a_at) / RFU ZSCAN30 (11745921_a_at) / Fold change /veh ZSCAN30 (11745921_a_at) / RFU CMKLR1 (11741424_a_at) / Fold change /veh CMKLR1 (11741424_a_at) / RFU LOC101060620 /// MAPK8IP1 (11723275_at) / Fold change /veh LOC101060620 /// MAPK8IP1 (11723275_at) / RFU SPTSSB (11747773_x_at) / Fold change /veh SPTSSB (11747773_x_at) / RFU PRSS12 (11739890_at) / Fold change /veh PRSS12 (11739890_at) / RFU BIN1 (11741810_x_at) / Fold change /veh BIN1 (11741810_x_at) / RFU WNT11 (11732464_a_at) / Fold change /veh WNT11 (11732464_a_at) / RFU C10orf10 (11716521_a_at) / Fold change /veh C10orf10 (11716521_a_at) / RFU C5orf56 (11738089_at) / Fold change /veh C5orf56 (11738089_at) / RFU CYB561 (11721691_x_at) / Fold change /veh CYB561 (11721691_x_at) / RFU ANKRD19P (11752326_a_at) / Fold change /veh ANKRD19P (11752326_a_at) / RFU OR2T12 /// OR2T33 /// OR2T8 (11738714_s_at) / Fold change /veh OR2T12 /// OR2T33 /// OR2T8 (11738714_s_at) / RFU VCAN (11748164_a_at) / Fold change /veh VCAN (11748164_a_at) / RFU JSRP1 (11732532_at) / Fold change /veh JSRP1 (11732532_at) / RFU KRTAP10-11 (11738290_x_at) / Fold change /veh KRTAP10-11 (11738290_x_at) / RFU MYO3A (11730013_a_at) / Fold change /veh MYO3A (11730013_a_at) / RFU EBF3 (11725865_a_at) / Fold change /veh EBF3 (11725865_a_at) / RFU CAMK2N1 (11719241_x_at) / Fold change /veh CAMK2N1 (11719241_x_at) / RFU C5orf56 (11738088_a_at) / Fold change /veh C5orf56 (11738088_a_at) / RFU OLFML3 (11715873_a_at) / Fold change /veh OLFML3 (11715873_a_at) / RFU LOC100653217 /// NTM (11731650_a_at) / Fold change /veh LOC100653217 /// NTM (11731650_a_at) / RFU MAPK11 (11762145_a_at) / Fold change /veh MAPK11 (11762145_a_at) / RFU FIZ1 (11724087_x_at) / Fold change /veh FIZ1 (11724087_x_at) / RFU OASL (11726364_x_at) / Fold change /veh OASL (11726364_x_at) / RFU SOX15 (11748057_x_at) / Fold change /veh SOX15 (11748057_x_at) / RFU CD79A (11719716_a_at) / Fold change /veh CD79A (11719716_a_at) / RFU HIST1H1D (11736915_at) / Fold change /veh HIST1H1D (11736915_at) / RFU CASKIN2 (11723855_a_at) / Fold change /veh CASKIN2 (11723855_a_at) / RFU LOC730098 (11760151_x_at) / Fold change /veh LOC730098 (11760151_x_at) / RFU OR4N2 (11742367_at) / Fold change /veh OR4N2 (11742367_at) / RFU PRRT2 (11749266_a_at) / Fold change /veh PRRT2 (11749266_a_at) / RFU SNX32 (11753110_a_at) / Fold change /veh SNX32 (11753110_a_at) / RFU CDHR5 (11726645_a_at) / Fold change /veh CDHR5 (11726645_a_at) / RFU RCAN1 (11760418_a_at) / Fold change /veh RCAN1 (11760418_a_at) / RFU FAM167A (11723789_a_at) / Fold change /veh FAM167A (11723789_a_at) / RFU FAM26E (11764081_at) / Fold change /veh FAM26E (11764081_at) / RFU ISYNA1 (11749810_s_at) / Fold change /veh ISYNA1 (11749810_s_at) / RFU ACY1 (11761880_at) / Fold change /veh ACY1 (11761880_at) / RFU 11764098_at / Fold change /veh 11764098_at / RFU SAMD14 (11745864_x_at) / Fold change /veh SAMD14 (11745864_x_at) / RFU NPB (11741838_a_at) / Fold change /veh NPB (11741838_a_at) / RFU TMPRSS6 (11731388_a_at) / Fold change /veh TMPRSS6 (11731388_a_at) / RFU KRTAP10-2 (11738614_at) / Fold change /veh KRTAP10-2 (11738614_at) / RFU ARHGAP8 /// PRR5-ARHGAP8 (11727945_x_at) / Fold change /veh ARHGAP8 /// PRR5-ARHGAP8 (11727945_x_at) / RFU KRTAP5-7 /// NADSYN1 (11734609_at) / Fold change /veh KRTAP5-7 /// NADSYN1 (11734609_at) / RFU RASL12 (11751679_a_at) / Fold change /veh RASL12 (11751679_a_at) / RFU CDKN2B (11736163_a_at) / Fold change /veh CDKN2B (11736163_a_at) / RFU PRF1 (11729649_at) / Fold change /veh PRF1 (11729649_at) / RFU, ZNF638 /// ZNF638-IT1 / Fold change vs veh, ZNF638 /// ZNF638-IT1 / RFU, PANK3 / Fold change vs veh, PANK3 / RFU, SH3YL1 / Fold change vs veh, SH3YL1 / RFU, ZEB2 / Fold change vs veh, ZEB2 / RFU, NRIP1 / Fold change vs veh, NRIP1 / RFU, PTTG1IP / Fold change vs veh, PTTG1IP / RFU, CAPN2 / Fold change vs veh, CAPN2 / RFU, MED14 / Fold change vs veh, MED14 / RFU, SNORA58 / Fold change vs veh, SNORA58 / RFU, C1orf63 / Fold change vs veh, C1orf63 / RFU, LRRFIP1 / Fold change vs veh, LRRFIP1 / RFU, NDUFAF7 / Fold change vs veh, NDUFAF7 / RFU, SLC12A2 / Fold change vs veh, SLC12A2 / RFU, IBTK / Fold change vs veh, IBTK / RFU, ESF1 / Fold change vs veh, ESF1 / Fold change vs veh, TMEM50B / RFU, TAOK1 / Fold change vs veh, TAOK1 / RFU, ACBD3 / Fold change vs veh, ACBD3 / RFU, TMA16 / Fold change vs veh, TMA16 / RFU, RWDD3 / Fold change vs veh, RWDD3 / RFU, BCAT1 / Fold change vs veh, BCAT1 / RFU, EDEM3 / Fold change vs veh, EDEM3 / RFU, TMEM33 / Fold change vs veh, TMEM33 / RFU, WDR75 / Fold change vs veh, WDR75 / RFU, AHCTF1 / Fold change vs veh, AHCTF1 / RFU, TFRC / Fold change vs veh, TFRC / RFU, ZDHHC17 / Fold change vs veh, ZDHHC17 / RFU, NOM1 / Fold change vs veh, NOM1 / RFU, ARL8B / Fold change vs veh, ARL8B / RFU, ZBTB11 / Fold change vs veh, ZBTB11 / RFU, TAMM41 / Fold change vs veh, TAMM41 / RFU, KIAA1704 /// LOC100996395 / Fold change vs veh, KIAA1704 /// LOC100996395 / RFU, ING1 / Fold change vs veh, ING1 / RFU, TRMT61B / Fold change vs veh, TRMT61B / RFU, FUBP3 / Fold change vs veh, FUBP3 / RFU, TP53 / Fold change vs veh, TP53 / RFU, TNKS2 / Fold change vs veh, TNKS2 / RFU, ZFP14 / Fold change vs veh, ZFP14 / RFU, ACTR2 / Fold change vs veh, ACTR2 / RFU, PPP3R1 / Fold change vs veh, PPP3R1 / RFU, PIK3R1 / Fold change vs veh, PIK3R1 / RFU, HNRNPA1 / Fold change vs veh, HNRNPA1 / RFU, RNF170 / Fold change vs veh, RNF170 / RFU, ZNF28 / Fold change vs veh, ZNF28 / RFU, RNGTT / Fold change vs veh, RNGTT / RFU, OGT / Fold change vs veh, OGT / RFU, BRD1 / Fold change vs veh, BRD1 / RFU, MARS / Fold change vs veh, MARS / RFU, ZNF655 / Fold change vs veh, ZNF655 / RFU, FAHD1 / Fold change vs veh, FAHD1 / RFU, BDP1 / Fold change vs veh, BDP1 / RFU, LRRCC1 / Fold change vs veh, LRRCC1 / RFU, ARID1A / Fold change vs veh, ARID1A / RFU, ZNF146 / Fold change vs veh, ZNF146 / RFU, ZNF330 / Fold change vs veh, ZNF330 / RFU, GPN3 / Fold change vs veh, GPN3 / RFU, C9orf123 / Fold change vs veh, C9orf123 / RFU, N4BP2L2 / Fold change vs veh, N4BP2L2 / RFU, ARFIP1 / Fold change vs veh, ARFIP1 / RFU, FAM179B / Fold change vs veh, FAM179B / RFU, BCL10 / Fold change vs veh, BCL10 / RFU, UHRF1BP1L / Fold change vs veh, UHRF1BP1L / RFU, BET1 / Fold change vs veh, BET1 / RFU, CNOT2 / Fold change vs veh, CNOT2 / RFU, ZNF268 / Fold change vs veh, ZNF268 / Fold change vs veh, ZNF507 / RFU, DGCR2 / Fold change vs veh, DGCR2 / RFU, WDSUB1 / Fold change vs veh, WDSUB1 / Fold change vs veh, HSP90B1 /// MIR3652 / RFU, ADSS / Fold change vs veh, ADSS / RFU, GK / Fold change vs veh, GK / RFU, ZNF148 / Fold change vs veh, ZNF148 / RFU, TAF9 / Fold change vs veh, TAF9 / RFU, SLC1A5 / Fold change vs veh, SLC1A5 / RFU, SLMO2 / Fold change vs veh, SLMO2 / RFU, ABCC4 / Fold change vs veh, ABCC4 / RFU, LOC101060439 /// RAP1B / Fold change vs veh, LOC101060439 /// RAP1B / RFU, RFX7 / Fold change vs veh, RFX7 / RFU, GTPBP10 / Fold change vs veh, GTPBP10 / RFU, CNEP1R1 / Fold change vs veh, CNEP1R1 / RFU, BIVM-ERCC5 /// ERCC5 / Fold change vs veh, BIVM-ERCC5 /// ERCC5 / RFU, ILF3 / Fold change vs veh, ILF3 / RFU 11762660_at / Fold change /veh 11762660_at / RFU VCAN (11757783_s_at) / Fold change /veh VCAN (11757783_s_at) / RFU DDX43 (11728927_at) / Fold change /veh DDX43 (11728927_at) / RFU KRT8 (11758188_x_at) / Fold change /veh KRT8 (11758188_x_at) / RFU NKD1 (11759106_at) / Fold change /veh NKD1 (11759106_at) / RFU SRD5A1 (11742802_a_at) / Fold change /veh SRD5A1 (11742802_a_at) / RFU TPSAB1 /// TPSB2 (11721975_s_at) / Fold change /veh TPSAB1 /// TPSB2 (11721975_s_at) / RFU GSTM3 (11746129_a_at) / Fold change /veh GSTM3 (11746129_a_at) / RFU IL23R (11737362_x_at) / Fold change /veh IL23R (11737362_x_at) / RFU TMEM51 (11727254_a_at) / Fold change /veh TMEM51 (11727254_a_at) / RFU PIWIL2 (11732686_x_at) / Fold change /veh PIWIL2 (11732686_x_at) / RFU ORM1 (11744905_x_at) / Fold change /veh ORM1 (11744905_x_at) / RFU CCDC152 (11743942_at) / Fold change /veh CCDC152 (11743942_at) / RFU ECM1 (11717891_a_at) / Fold change /veh ECM1 (11717891_a_at) / RFU IL23R (11748794_a_at) / Fold change /veh IL23R (11748794_a_at) / RFU TNFAIP8L3 (11732012_x_at) / Fold change /veh TNFAIP8L3 (11732012_x_at) / RFU MBOAT4 (11741988_at) / Fold change /veh MBOAT4 (11741988_at) / RFU 11764193_at / Fold change /veh 11764193_at / RFU TMEM53 (11763286_at) / Fold change /veh TMEM53 (11763286_at) / RFU MAGEB2 (11727129_at) / Fold change /veh MAGEB2 (11727129_at) / RFU TMEM200A (11744735_a_at) / Fold change /veh TMEM200A (11744735_a_at) / RFU CCDC152 (11751479_a_at) / Fold change /veh CCDC152 (11751479_a_at) / RFU FAM211A (11726209_a_at) / Fold change /veh FAM211A (11726209_a_at) / RFU RGS16 (11746705_a_at) / Fold change /veh RGS16 (11746705_a_at) / RFU VCAN (11755009_s_at) / Fold change /veh VCAN (11755009_s_at) / RFU RHOB (11743442_s_at) / Fold change /veh RHOB (11743442_s_at) / RFU RGS16 (11720943_a_at) / Fold change /veh RGS16 (11720943_a_at) / RFU RGS16 (11720944_at) / Fold change /veh RGS16 (11720944_at) / RFU, VPS4B / Fold change vs veh, VPS4B / RFU, CREB1 / Fold change vs veh, CREB1 / RFU, DNAJC13 / Fold change vs veh, DNAJC13 / RFU, GNAQ / Fold change vs veh, GNAQ / RFU, CDK5R1 / Fold change vs veh, CDK5R1 / RFU, ZRANB3 / Fold change vs veh, ZRANB3 / RFU, CUL4A / Fold change vs veh, CUL4A / RFU, CCNY / Fold change vs veh, CCNY / RFU, UFL1 / Fold change vs veh, UFL1 / RFU, COG3 / Fold change vs veh, COG3 / RFU, DIAPH2 / Fold change vs veh, DIAPH2 / RFU, SKA2 / Fold change vs veh, SKA2 / RFU, AFF3 / Fold change vs veh, AFF3 / RFU, LMF1 / Fold change vs veh, LMF1 / RFU, IPO11 / Fold change vs veh, IPO11 / RFU, DFFB / Fold change vs veh, DFFB / RFU, FOXP1 / Fold change vs veh, FOXP1 / RFU, CARD8 / Fold change vs veh, CARD8 / RFU, STRN3 / Fold change vs veh, STRN3 / RFU, ADK / Fold change vs veh, ADK / RFU, RASSF2 / Fold change vs veh, RASSF2 / RFU, WIPF1 / Fold change vs veh, WIPF1 / RFU, LARP1B / Fold change vs veh, LARP1B / RFU, RASA1 / Fold change vs veh, RASA1 / RFU, RB1 / Fold change vs veh, RB1 / RFU, PPFIA1 / Fold change vs veh, PPFIA1 / RFU, MAT2A / Fold change vs veh, MAT2A / RFU, CCT5 / Fold change vs veh, CCT5 / RFU, WDR92 / Fold change vs veh, WDR92 / RFU, CUX1 / Fold change vs veh, CUX1 / RFU, TTC7A / Fold change vs veh, TTC7A / RFU, TMEM135 / Fold change vs veh, TMEM135 / RFU, DEPTOR / Fold change vs veh, DEPTOR / RFU, CPM / Fold change vs veh, CPM / RFU, DNAJB6 / Fold change vs veh, DNAJB6 / RFU, CACNA2D3 / Fold change vs veh, CACNA2D3 / RFU, DTX4 / Fold change vs veh, DTX4 / RFU, TFCP2 / Fold change vs veh, TFCP2 / RFU, GMCL1 /// GMCL1P1 / Fold change vs veh, GMCL1 /// GMCL1P1 / RFU, AEBP2 / Fold change vs veh, AEBP2 / RFU, SNHG1 /// SNORD22 /// SNORD25 /// SNORD26 /// SNORD27 /// SNORD28 /// SNORD29 /// SNORD31 / Fold change vs veh, SNHG1 /// SNORD22 /// SNORD25 /// SNORD26 /// SNORD27 /// SNORD28 /// SNORD29 /// SNORD31 / Fold change (Aza/veh), C12orf56 (ProbeSet 11735607_a_at) / Fold change (ACY-1035/veh), C12orf56 (ProbeSet 11735607_a_at) / Fold change (Aza/veh), FGFR1OP (ProbeSet 11751329_s_at) / Fold change (ACY-1035/veh), FGFR1OP (ProbeSet 11751329_s_at) / Fold change (Aza/veh), VPS36 (ProbeSet 11739960_a_at) / Fold change (ACY-1035/veh), VPS36 (ProbeSet 11739960_a_at) / RFU SYPL1 (11715823_x_at) / Fold change /veh SYPL1 (11715823_x_at) / RFU IGFBP7 (11715501_s_at) / Fold change /veh IGFBP7 (11715501_s_at) / RFU REEP3 (11722064_at) / Fold change /veh REEP3 (11722064_at) / RFU IGLL1 (11728026_x_at) / Fold change /veh IGLL1 (11728026_x_at): dose or concentration left out as unconfirmed
Details: ProbeSet 11743580_s_at; LIST B

Structure (SMILES): Nc1ncn([C@@H]2O[C@H](CO)[C@@H](O)[C@H]2O)c(=O)n1 [azacitidine]
- Fold change vs veh, ACTR2: 0.91

Reference: paper PMC5218480 (PLoS ONE, 2017)
